According to US12503453B2, “USP7 inhibition” (Dana-Farber Cancer Institute, Inc., priority 2018, dated 2025):

The compounds below were run against full length USP7 (Homo sapiens (Human), UniProt Q93009) (assay: Ub-AMC enzymatic assay with full-length USP7). Conditions: Table 1; 6 hours pre-incubation, Ub-AMC; read-out: IC50 (nM), USP7 activity in USP7 assay.
Type: biochemical
Method: Both constructs were overexpressed in E. coli BL21 (DE3). Cells were grown at 37° C. to an OD of 0.9, cooled to 16° C., induced with 500 μM isopropyl-1-thio-D-galactopyranoside (IPTG), incubated overnight at 16° C., collected by centrifugation, and stored at −80° C. Cell pellets were sonicated in lysis buffer (25 mM Tris pH 8, 1 M NaCl, and 10 mM BME) supplemented with 10 μg/ml phenylmethanesulfonylfluoride (PMSF) and the resulting lysate was centrifuged at 30,000×g for 40 min. Ni-NTA beads (Qiagen) were mixed with lysate supernatant for 2 hours, and washed with lysis buffer supplemented with 25 mM imidazole. The bound protein was eluted with lysis buffer supplemented with 300 mM imidazole. The sample was then concentrated to 1 ml (30 kDa concentrator; Amicon Ultra, Millipore), and run on a Superdex 200 (GE healthcare) in buffer containing 25 mM HEPES pH 7.5, 200 mM NaCl, and 1 mM DTT. Fractions were pooled, concentrated and frozen at −80° C.
Full length USP7 was tested for its activity in Ubiquitin-AMC assay in presence or absence of inhibitors. USP7 (5 nM) was pre-incubated for 6 hours at room temperature with different concentrations of inhibitors or DMSO as a control in 50 mM HEPES pH 7.5, 0.5 mM EDTA, 11 μM ovalbumin, and 5 mM DTT. Ubiquitin-AMC (Boston Biochem) was then added to a final concentration of 500 nM. The initial rate of the reaction was measured by collecting fluorescence data at one minute intervals over 30-minute period using a Clariostar fluorescence plate reader at excitation and emission wavelength of 345 and 445 nm respectively. The calculated initial rate values were plotted against inhibitor concentrations to determine IC50s. All the experimental data were plotted using Prism GraphPad. All assays for each compound were performed at least twice for each compound.

Chain of full length USP7 (Q93009 whole entry): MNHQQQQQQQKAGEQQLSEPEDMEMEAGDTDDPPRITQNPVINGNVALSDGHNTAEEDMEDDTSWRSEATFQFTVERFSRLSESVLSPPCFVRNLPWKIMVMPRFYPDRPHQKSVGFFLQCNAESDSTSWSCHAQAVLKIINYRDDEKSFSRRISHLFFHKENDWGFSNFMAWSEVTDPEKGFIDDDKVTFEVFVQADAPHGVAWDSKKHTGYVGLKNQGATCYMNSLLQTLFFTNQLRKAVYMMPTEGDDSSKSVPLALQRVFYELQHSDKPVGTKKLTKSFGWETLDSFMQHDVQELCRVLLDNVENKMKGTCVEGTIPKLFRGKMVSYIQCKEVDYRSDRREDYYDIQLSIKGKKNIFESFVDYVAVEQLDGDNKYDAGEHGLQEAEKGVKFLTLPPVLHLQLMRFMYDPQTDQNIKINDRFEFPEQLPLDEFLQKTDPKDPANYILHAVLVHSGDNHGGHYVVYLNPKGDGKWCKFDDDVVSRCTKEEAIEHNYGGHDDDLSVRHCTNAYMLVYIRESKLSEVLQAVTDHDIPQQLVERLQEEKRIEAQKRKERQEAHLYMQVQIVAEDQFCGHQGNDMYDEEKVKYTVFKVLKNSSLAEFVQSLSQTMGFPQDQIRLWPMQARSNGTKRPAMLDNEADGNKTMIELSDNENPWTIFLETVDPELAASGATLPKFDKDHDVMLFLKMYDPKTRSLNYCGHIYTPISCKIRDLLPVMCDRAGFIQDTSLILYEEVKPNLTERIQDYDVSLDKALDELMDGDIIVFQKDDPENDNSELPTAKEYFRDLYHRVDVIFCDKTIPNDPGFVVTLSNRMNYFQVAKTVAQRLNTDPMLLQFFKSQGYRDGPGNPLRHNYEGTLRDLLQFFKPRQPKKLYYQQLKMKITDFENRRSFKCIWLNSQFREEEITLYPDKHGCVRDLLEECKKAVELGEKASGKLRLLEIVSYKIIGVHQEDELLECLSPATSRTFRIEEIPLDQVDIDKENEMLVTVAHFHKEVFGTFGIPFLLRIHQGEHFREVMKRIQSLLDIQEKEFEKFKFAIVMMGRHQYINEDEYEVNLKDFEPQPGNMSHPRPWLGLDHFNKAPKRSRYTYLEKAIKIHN

IC50, < 20 nM:
O=C(CCN1CCOCC1)Nc1ccc2c(=O)n(CC3(O)CCN(C(=O)[C@H](Cc4cscn4)NC(=O)CNC(=O)c4ccc5c(Cl)c6c(nc5c4)CCCC6)CC3)cnc2c1
O=C(CCN1CCOCC1)Nc1ccc2c(=O)n(CC3(O)CCN(C(=O)[C@H](Cc4c[nH]cn4)NC(=O)CNC(=O)c4ccc5c(Cl)c6c(nc5c4)CCCC6)CC3)cnc2c1
O=C(CCN1CCOCC1)Nc1ccc2c(=O)n(CC3(O)CCN(C(=O)[C@H](Cc4cc(F)cc(F)c4)NC(=O)CNC(=O)c4ccc5c(Cl)c6c(nc5c4)CCCC6)CC3)cnc2c1
CN1CCN(CCC(=O)Nc2ccc3c(=O)n(CC4(O)CCN(C(=O)[C@H](Cc5ccccc5)NC(=O)CCNC(=O)c5ccc6c(Cl)c7c(nc6c5)CCCC7)CC4)cnc3c2)CC1
CN1CCN(CCC(=O)Nc2ccc3c(=O)n(CC4(O)CCN(C(=O)[C@@H](CCCNC(=O)c5ccc6c(Cl)c7c(nc6c5)CCCC7)Cc5ccccc5)CC4)cnc3c2)CC1 [drawing 146]
CN1CCN(CCC(=O)Nc2ccc3c(=O)n(CC4(O)CCN(C(=O)[C@H](Cc5ccccc5)NC(=O)CNC(=O)c5ccc6c(Cl)c7c(nc6c5)CCCC7)CC4)cnc3c2)CC1
O=C(CCN1CCOCC1)Nc1ccc2c(=O)n(CC3(O)CCN(C(=O)[C@H](CC4CCCCC4)NC(=O)CNC(=O)c4ccc5c(Cl)c6c(nc5c4)CCCC6)CC3)cnc2c1
CN1CCN(CCC(=O)Nc2ccc3c(=O)n(CC4(O)CCN(C(=O)C(CCNC(=O)c5ccc6c(Cl)c7c(nc6c5)CCCC7)Cc5ccccc5)CC4)cnc3c2)CC1 (centres unmarked)

IC50, > 1000 nM:
CN1CCN(CCC(=O)Nc2ccc3c(=O)n(CC4CCN(C(=O)C(CCCNC(=O)c5ccc6c(Cl)c7c(nc6c5)CCCC7)Cc5ccccc5)CC4)cnc3c2)CC1 (centres unmarked)
CN1CCN(CCC(=O)Nc2ccc3c(=O)n(CC4(O)CCN(C(=O)C(CCCNC(=O)c5cc(C(=O)CCl)cn5C)Cc5ccccc5)CC4)cnc3c2)CC1 (centres unmarked)
CC(C)NC(=O)/C=C/c1ccc(C(=O)NCCC[C@@H](Cc2ccccc2)C(=O)N2CCC(O)(Cn3cnc4cc(NC(=O)CCN5CCOCC5)ccc4c3=O)CC2)cn1
CN(C)C(=O)/C=C/c1ccc(C(=O)NCCC[C@@H](Cc2ccccc2)C(=O)N2CCC(O)(Cn3cnc4cc(NC(=O)CCN5CCOCC5)ccc4c3=O)CC2)cn1
CN1CCN(CCC(=O)Nc2ccc3c(=O)n(CC4(O)CCN(C(=O)CNC(=O)c5ccc6c(Cl)c7c(nc6c5)CCCC7)CC4)cnc3c2)CC1
CN1CCN(CCC(=O)Nc2ccc3c(=O)n(CC4(O)CCN(C(=O)C(CCCNC(=O)c5cnccc5Cl)Cc5ccccc5)CC4)cnc3c2)CC1 (centres unmarked)

IC50, 20 to 100 nM:
CN1CCN(CCC(=O)Nc2ccc3c(=O)n(CC4(O)CCN(C(=O)CCCNC(=O)c5ccc6c(Cl)c7c(nc6c5)CCCC7)CC4)cnc3c2)CC1
O=C(CCn1ccnc1)Nc1ccc2c(=O)n(CC3(O)CCN(C(=O)CCCCNC(=O)c4ccc5c(Cl)c6c(nc5c4)CCCC6)CC3)cnc2c1
CN1CCN(CCC(=O)Nc2ccc3c(=O)n(CC4(O)CCN(C(=O)CCCCNC(=O)c5ccc6c(Cl)c7c(nc6c5)CCCC7)CC4)cnc3c2)CC1 [drawing 141]
CN(C)CCC(=O)Nc1ccc2c(=O)n(CC3(O)CCN(C(=O)CCCCNC(=O)c4ccc5c(Cl)c6c(nc5c4)CCCC6)CC3)cnc2c1
C=CS(=O)(=O)N1CCCc2cc(C(=O)NCCCC(Cc3ccccc3)C(=O)N3CCC(O)(Cn4cnc5cc(NC(=O)CCN6CCN(C)CC6)ccc5c4=O)CC3)ccc21 (centres unmarked)
CN1CCN(CCC(=O)Nc2ccc3c(=O)n(CC4(O)CCN(C(=O)C(CCCNC(=O)c5ccc6c(c5)CCCN6C(=O)CCl)Cc5ccccc5)CC4)cnc3c2)CC1 (centres unmarked)

IC50, 100 to 1000 nM:
CN1CCN(CCC(=O)Nc2ccc3c(=O)n(CC4(O)CCN(C(=O)C(CCCNC(=O)C5(C#N)CC5)Cc5ccccc5)CC4)cnc3c2)CC1 (centres unmarked)
O=C(NCCC[C@@H](Cc1ccccc1)C(=O)N1CCC(O)(Cn2cnc3cc(N4CCOCC4)ccc3c2=O)CC1)c1ccc2c(Cl)c3c(nc2c1)CCCC3
CN1CCN(CCC(=O)Nc2ccc3c(=O)n(CC4(O)CCN(C(=O)[C@H](CCCNC(=O)c5ccc6c(Cl)c7c(nc6c5)CCCC7)Cc5ccccc5)CC4)cnc3c2)CC1 [drawing 147]

Same assay, conditions: Table 2; 6 hours pre-incubation, Ub-AMC; read-out: IC50 (μM), USP7 activity in USP7 assay

IC50, 20 to 100 nM:
CN1CCN(CCC(=O)Nc2ccc3c(=O)n(CC4(O)CCN(C(=O)C(CCCNC(=O)c5ccc(/C=C6\CCCCC6=O)cc5)Cc5ccccc5)CC4)cnc3c2)CC1 (centres unmarked)
C#CCNCCCC(Cc1ccccc1)C(=O)N1CCC(O)(Cn2cnc3cc(NC(=O)CCN4CCN(C)CC4)ccc3c2=O)CC1 (centres unmarked)
O=C(CN1CCN(C(=O)c2ccc3c(Cl)c4c(nc3c2)CCCC4)CC1)N1CCC(O)(Cn2cnc3cc(Cl)ccc3c2=O)CC1
C=CS(=O)(=O)NCCCC(Cc1ccccc1)C(=O)N1CCC(O)(Cn2cnc3cc(NC(=O)CCN4CCN(C)CC4)ccc3c2=O)CC1 (centres unmarked)

IC50, < 20 nM:
C=CC(=O)NCCCC(Cc1ccccc1)C(=O)N1CCC(O)(Cn2cnc3cc(NC(=O)CCN4CCN(C)CC4)ccc3c2=O)CC1 (centres unmarked)

IC50, 100 to 1000 nM:
O=C(CCN1CCN(C(=O)c2ccc3c(Cl)c4c(nc3c2)CCCC4)CC1)N1CCC(O)(Cn2cnc3cc(Cl)ccc3c2=O)CC1
CN1CCN(CCC(=O)Nc2ccc3c(=O)n(CC4(O)CCN(C(=O)C(CCCNC(=O)c5ccc6cc7c(nc6c5)CCCC7)Cc5ccccc5)CC4)cnc3c2)CC1 (centres unmarked) [drawing 180]

Same assay, conditions: Table 3; 6 hours pre-incubation, Ub-AMC; read-out: IC50 (μM), USP7 activity in USP7 assay

IC50, 100 to 1000 nM:
O=C(CCN1CCOCC1)Nc1ccc2c(=O)n(CC3(O)CCN(C(=O)[C@H](Cc4ccccc4)NC(=O)COc4ccc5c(Cl)c6c(nc5c4)CCCC6)CC3)cnc2c1
O=C(CCN1CCOCC1)Nc1ccc2c(=O)n(CC3(O)CCN(C(=O)C(CCCNC(=O)c4ccc5c(Cl)cc(C(F)(F)F)nc5c4)Cc4ccccc4)CC3)cnc2c1 (centres unmarked)

IC50, > 1000 nM:
Cc1cc(Cl)c2ccc(C(=O)NCCCC(Cc3ccccc3)C(=O)N3CCC(O)(Cn4cnc5cc(NC(=O)CCN6CCOCC6)ccc5c4=O)CC3)cc2n1 (centres unmarked)
C=CC(=O)Nc1cccc(-c2cn([C@@H](Cc3ccccc3)C(=O)N3CCC(O)(Cn4cnc5cc(NC(=O)CCN6CCOCC6)ccc5c4=O)CC3)nn2)c1
CN1CCN(CCC(=O)Nc2ccc3c(=O)n(CC4(O)CCN(C(=O)C(CCCNC(=O)c5ccc6c(Cl)c7c(nc6c5)CCCC7)c5ccccc5)CC4)cnc3c2)CC1 (centres unmarked)
O=C(CCN1CCOCC1)Nc1ccc2c(=O)n(CC3(O)CCN(C(=O)C(CCCNC(=O)c4ccc5c(O)ccnc5c4)Cc4ccccc4)CC3)cnc2c1 (centres unmarked)
O=C(CCN1CCOCC1)Nc1ccc2c(=O)n(CC3(O)CCN(C(=O)[C@H](Cc4ccccc4)n4ccnn4)CC3)cnc2c1
C=CC(=O)Nc1ccccc1-c1cn([C@@H](Cc2ccccc2)C(=O)N2CCC(O)(Cn3cnc4cc(NC(=O)CCN5CCOCC5)ccc4c3=O)CC2)nn1

IC50, 20 to 100 nM:
CN1CCN(CCC(=O)Nc2ccc3c(=O)n(CC4(O)CCN(C(=O)C(CCCNC(=O)c5ccc6c(Cl)cc(-c7ccc(F)cc7)nc6c5)Cc5ccccc5)CC4)cnc3c2)CC1 (centres unmarked)
CN1CCN(CCC(=O)Nc2ccc3c(=O)n(CC4(O)CCN(C(=O)C(CCCNC(=O)c5ccc6c(Cl)cc(-c7cscn7)nc6c5)Cc5ccccc5)CC4)cnc3c2)CC1 (centres unmarked)
O=C(NCCCC(Cc1ccccc1)C(=O)N1CCC(O)(Cn2cnc3cc(OCCN4CCOCC4)ccc3c2=O)CC1)c1ccc2c(Cl)c3c(nc2c1)CCCC3 (centres unmarked)
O=C(CCN1CCOCC1)Nc1ccc2c(=O)n(CC3(O)CCN(C(=O)[C@H](Cc4ccccc4)NC(=O)COc4cccc5c(Cl)c6c(nc45)CCCC6)CC3)cnc2c1
O=C(NCCC[C@@H](Cc1ccccc1)C(=O)N1CCC(O)(Cn2cnc3c(N4CCOCC4)cccc3c2=O)CC1)c1ccc2c(Cl)c3c(nc2c1)CCCC3
O=C(CCN1CCOCC1)Nc1ccc2c(=O)n(CC3(O)CCN(C(=O)C(CCCNC(=O)c4ccc5c(Cl)c6c(nc5c4)CCCC6)Cc4ccc(F)cc4F)CC3)cnc2c1 (centres unmarked)
CN1CCN(CCC(=O)Nc2ccc3c(=O)n(CC4(O)CCN(C(=O)[C@@H](Cc5ccccc5)NC(=O)CNC(=O)c5ccc6c(Cl)c7c(nc6c5)CCCC7)CC4)cnc3c2)CC1
O=C(CCN1CCOCC1)Nc1ccc2c(=O)n(CC3(O)CCN(C(=O)C(CCCNC(=O)c4ccc5c(Cl)c6c(nc5c4)CCCC6)Cc4ccc(F)c(C(F)(F)F)c4)CC3)cnc2c1 (centres unmarked)

Same assay, conditions: purified enzyme and native USP7

USP7 inhibitory activity, retained USP7 inhibitory activity:
C[C@@H]1NC(=O)N[C@@H]1CCCCCC(=O)NCCOCCOCCOCCC(=O)N1CCN(CC(=O)Nc2ccc3c(=O)n(CC4(O)CCN(C(=O)CCCCNC(=O)c5ccc6c(Cl)c7c(nc6c5)CCCC7)CC4)cnc3c2)CC1 [compound 6-DTB, 9-chloro-N-(5-(4-hydroxy-4-((7-(2-(4-(19-((4R,5S)-5-methyl-2-oxoimidazolidin-4-yl)-14-oxo-4,7,10-trioxa-13-azanonadecanoyl)piperazin-1-yl)acetamido)-4-oxoquinazolin-3(4H)-yl)methyl)piperidin-1-yl)-5-oxopentyl)-5,6,7,8-tetrahydroacridine-3-carboxamide]
